Test results: publication PMC6766655, “AhR–ROR-γt complex is a therapeutic target for MAP4K3/GLK^highIL-17A^high subpopulation of systemic lupus erythematosus” (The FASEB Journal, 2019)

Experiments:
GCK (MAP4K2) = biological target: T1, GCK (MAP4K2) (Homo sapiens, UniProt Q12851); test: In vitro kinase assay, myelin basic protein as substrate (ADP-Glo); type: biochemical; conditions: recombinant kinase domain
T1 construct: Recombinant proteins of kinase domains of various MAP4Ks were used; purchased Promega
T1 sequence (Q12851 16-273 limits assumed): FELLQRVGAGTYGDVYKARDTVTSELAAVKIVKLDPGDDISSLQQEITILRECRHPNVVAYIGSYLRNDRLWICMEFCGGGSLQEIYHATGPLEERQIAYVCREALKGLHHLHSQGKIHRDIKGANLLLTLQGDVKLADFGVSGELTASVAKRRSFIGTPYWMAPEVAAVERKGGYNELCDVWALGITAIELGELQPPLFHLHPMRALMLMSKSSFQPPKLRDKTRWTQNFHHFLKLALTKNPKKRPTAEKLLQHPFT

Lck-GLK Tg mice = test: Serum cytokines and autoantibodies (ELISA) in Lck-GLK Tg mice; type: in vivo; conditions: 0.4 μg/g body weight i.v. every 3 d
Source text: Lck-GLK Tg mice with C57BL/6J backgrounds and GLK-deficient mice with C57BL/6J backgrounds were generated as previously described ([18], [21]). Their respective wild-type littermates with C57BL/6J backgrounds were used as controls. Mice used in this report were either 20-wk-old sex-matched littermates or 8–10-wk-old sex-matched [all female for EAE, all male for collagen-induced arthritis (CIA)] C57BL/6J wild-type mice. All mice used in this study were maintained in temperature-controlled and pathogen-free cages. All animal experiments were performed in the Association for Assessment and Accreditation of Laboratory Animal Care–animal housing facilities at National Health Research Institutes. All mice were used according to the protocols and guidelines approved by the Institutional Animal Care and Use Committee of National Health Research Institutes.
Lck-GLK Tg mice were administered verteporfin (0.4 μg/g body weight) by intravenous injection every 3 d for a period of 30 d (Fig. 4A). […] Moreover, overproduction of autoantibodies (anti-nuclear antibody, anti-dsDNA antibody, and rheumatoid factor) in Lck-GLK Tg mice was also abolished by the verteporfin treatment for 30 d (Fig. 4C). […] To further verify that verteporfin is also effective in IL-17A–mediated animal models, we treated wild-type mice with verteporfin during induction of EAE and CIA.
Figure 4 Verteporfin (C1) suppresses IL-17 production and autoimmune responses in mice. A–C) Effect of C1 administration (0.4 μg/g body weight every 3 d for a period of 30 d) on serum IL-17A and autoantibodies in 20-wk-old Lck-GLK Tg mice. B) ELISA of serum IL-17A, IL-6, TNF-α, IFN-γ, and IL-17F in Lck-GLK Tg mice treated with C1 or PBS for 16 d. C) ELISA of serum autoantibodies in Lck-GLK Tg mice treated with C1 or PBS for 30 d. Means ± SEM are shown; n = 4/group. D) EAE induction in wild-type C57BL/6J mice treated with PBS or C1 (0.4 μg/g body weight every 3 d). Clinical scores are presented on a scale of 1–5. PBS group, n = 10; C1 group, n = 7. E) ELISA of IL-17A in the sera from MOG-immunized mice at day 16. […]

murine primary T cells = test: ELISA of cytokines in supernatants of anti-CD3/CD28-stimulated murine primary T cells; type: cell-based; conditions: anti-CD3 plus anti-CD28
Source text: Primary human T cells were freshly isolated and negatively selected from the PBLs of clinical samples using a cocktail of biotin-conjugated anti-CD19, anti-CD14, and anti-CD11b antibodies (BioLegend) on a magnetic cell separation column (Miltenyi Biotec, Bergisch Gladbach, Germany) ([26]). In addition, primary murine T cells were negatively selected from the spleens of mice using magnetically coupled antibodies against CD11b, B220, CD49b, CD235, and TER-119 (Miltenyi Biotec) ([18]).
We further studied whether IL-17A production is abolished by verteporfin in human and murine T cells. We first tested the inhibitory effect of verteporfin in murine T cells stimulated with T-cell receptor (TCR) signaling (anti-CD3 plus anti-CD28 antibodies). […] This reduction is likely due to the inhibition of NF-κB activation ([18]) by the verteporfin treatment. This notion is supported by our published results that TCR-induced TNF-α and IFN-γ levels in T cells are inhibited by IKK-β conditional knockout ([18]). Next, we studied whether verteporfin attenuates IL-17A production using human peripheral blood T cells with stimulation. The levels of T-cell–secreted IL-17A in unstimulated T cells from patients with SLE and RA were enhanced compared with those from healthy controls (Fig. 5B). […] GLK overexpression in T cells selectively induces IL-17A production in Lck-GLK Tg mice ([18]). […] The inhibition of the production of other cytokines by the high-dose but not low-dose verteporfin treatment may be due to a requirement of higher concentration of verteporfin for an efficient inhibition of NF-κB activation.
Figure 5 Verteporfin (C1) blocks IL-17 production of human T cells. A) ELISA of various cytokines in supernatants of murine primary T cells stimulated with anti-CD3 or CD28 and cotreated with C1 (5 or 10 μM) for 3 d. Means ± SD are shown; n = 3/group. B) ELISA of various cytokines in supernatants of human T cells. T cells were stimulated with anti-CD3 or CD28 and cotreated with C1 (1 or 5 μM) for 3 d. HC, healthy control; N.S., not significant. Means ± SD are shown. *P < 0.05, **P < 0.01, ***P < 0.001 (2-tailed Student’s t test).

verteporfin was tested. Which IC50 (GCK (MAP4K2)) did it give?
The IC50 was 0.0103 µM.

And the “serum levels of IL-6, TNF-α, IFN-γ, and IL-17F” value (Lck-GLK Tg mice; 16 d)?
Its value is “not significantly changed”.

What about the “serum IL-17A” value (Lck-GLK Tg mice; 16 d, vs PBS) of the same substance?
Its value is “significantly decreased”.

What about the “overproduction of autoantibodies (anti-nuclear antibody, anti-dsDNA antibody, rheumatoid factor)” value (Lck-GLK Tg mice; 30 d) of the same substance?
Its value is “abolished”.

And the “TCR-induced IL-17A production” value (murine primary T cells; 5 or 10 μM for 3 d)?
Its value is “drastically abolished”.

And the “TCR-induced IL-17B, IL-17E, and IL-17F levels” value (murine primary T cells; 5 or 10 μM for 3 d)?
The value was “not significantly decreased”.

What about the “TCR-induced TNF-α levels” value (murine primary T cells; 5 or 10 μM for 3 d) of the same substance?
Its value is “slightly but not significantly reduced”.

And the “TCR-induced IFN-γ levels” value (murine primary T cells; high-dose 10 μM for 3 d)?
Its value is “significantly inhibited”.
